The values below come from patent US20240101538A1, “PROTEIN-PROTEIN INTERACTION MODULATORS OF AURORA KINASE A AND THEIR USE IN THE PREVENTION AND/OR TREATMENT OF CANCER” (EBERHARD KARLS UNIVERSITÄT TÜBINGEN, priority 2020, published 2024).

Experiment [1] addresses T1, AURKA (Homo sapiens (Human), UniProt O14965). The experiment can be described thus: Radioisotope filter binding assay (HotSpotSM; ReactionBiology) for AURKA kinase inhibition. Type of experiment: biochemical. From the text:
Table 2 summarizes the EC values of different compounds of this invention determined by colony formation assays on NMP53^−/− and NMCdkn2a^ARF−/− cells, as well as the corresponding IC50 values for the kinase inhibition of AURKA, determined by radioisotope filter binding assay (HotSpotSM; ReactionBiology). Most compounds further show a strong selectivity for NMP53^−/− cells, which is indicated by a lower EC concentration of a particular compound required for inhibiting cell growth of NMP53^−/− cells compared to NMCdkn2a^ARF−/− cells.

For another experiment, the system named is NMCdkn2a^ARF−/− cells. The experiment can be described thus: Colony formation assay on NMCdkn2a^ARF−/− cells. The experiment is classed as cell-based, murine. Conditions: Mus musculus, 120 h, 5 days, read-out: EC (NMCdkn2a^ARF−/−). An excerpt: (§1) To evaluate the effect of small molecules equipped with R-spine interacting moieties, the inventors screened a focused library of proprietary p38a MAP-Kinase inhibitors which were equipped with R-spine interacting pharmacophores. To this end, the inventors utilized a screening system as developed in Dauch et al.^2 The screening system is based on colony formation assays of cell lines isolated from Nras-driven, Trp53-deficient murine HCCs, whose development is dependent on MYC (NMP53^−/− cells), as well as Nras-driven, Cdkn2a^ARF-deficient murine HCCs, which develop independently of MYC (NMCdkn2a^ARF−/− cells). Importantly, NMP53^−/− cells are sensitive to AURKA inhibitors, which induce a conformational shift in AURKA, whereas NMCdkn2a^ARF−/− are not sensitive to such compounds.
(§2) For Colony Formation Assays, cells were seeded at a density of 50 000 cells per 6 well and next day treated with a 2-fold dilution series of the indicated compounds or the highest corresponding DMSO concentration as control. After 5 days, the cells were fixed with a 10% formaldehyde solution for 30 min, washed once with water, stained with a 0.5% crystal violet solution for 30 min and washed twice with water. The compounds effective concentration (EC) was determined according to the lowest concentration in the dilution series, that inhibited cell growth substantially. The resulting benzamide containing hit structure 1, with a twofold selectivity towards NMP53^−/− cells (effective concentration on NMP53^−/− cells (EC): 2 μM, EC on Cdkn2a^ARF−/−: 4 μM, FIG. 1), served as the inventors' starting point for further compound development.

Experiment [2] concerns the target T1, AURKA. The experiment can be described thus: Binding to AURKA.
For experiment [3], the system named is NMP53^−/− cells. The experiment can be described thus: Colony formation assay on NMP53^−/− cells. Type of experiment: cell-based, murine. Conditions: for minimal effective concentration: Mus musculus, 120 h, 5 days, read-out: EC (NMP53^−/−).
Description: as §1, §2

The test system of another experiment is 320 wildtype kinases. Kind of experiment: Kinome screen with 320 wildtype kinases. Type of experiment: biochemical.
Experiment [4] concerns the target interaction of AURKA with TPX2 (Homo sapiens (Human), UniProt O14965). Kind of experiment: Co-immunoprecipitation of FLAG-AURKA and western blot for TPX2. Type of experiment: cell-based, murine. Particulars: Co-IP with anti-FLAG, NMP53^−/− cells synchronized with nocodazole. The protocol:
Tumor cells (NMP53^−/− cells) expressing a doxycycline-inducible FLAG-AURKA construct were kept on doxycycline for 24 hours, synchronized with 50 ng/ml nocodazole for 6 hours and treated with two of the developed compounds or DMSO as a control. In particular, the top “AURKA-Ligand” refers to compound 3a [N-(2-fluoro-5-((4-(1-methyl-1H-pyrazole-4-yl)benzyl)amino)phenyl)-3-(furan-2-yl),propanamide], and the bottom “AURKA-Ligand” refers to compound 2c [N-(5-((4-(1H-pyrazole-4-yl)benzyl)amino)-2-fluorophenyl)-3-(furan-2-yl)propanamide]. Co-immunoprecipitations (Co-IP) were carried out with an antibody against FLAG. A DMSO-treated sample without FLAG-AURKA induction served as a control. The AURKA and TPX2 levels of the Co-IP samples and their input were determined by western blotting.
Tumor cells (NMP53/cells) expressing a doxycycline-inducible FLAG-AURKA construct were kept on doxycycline for 24 hours, synchronized with 50 ng/ml nocodazole for 6 hours and treated with two of the developed compounds of this invention (3a and 2c), or DMSO as a control. Then, co-immunoprecipitations (Co-IP) were carried out with an antibody against FLAG. A DMSO-treated sample without FLAG-AURKA induction served as a control. The AURKA and TPX2 levels of the Co-IP samples and their input were determined by western blotting.
For orientation: A western blot detects proteins with antibodies after separation by electrophoresis.

The test system of experiment [5] is NMP53^−/− cells. The experiment can be described thus: Cell viability assay (XTT-Assay). Particulars: 3 days treatment, read-out: cellular IC50. Type of experiment: cell-based, murine. The protocol:
(A) Colony formation assay of a tumor cell line (NMP53^−/− cells), incubated for 5 days with compound 3a [N-(2-fluoro-5-((4-(1-methyl-1H-pyrazole-4-yl)benzyl)amino)phenyl)-3-(furan-2-yl)-propanamide] as indicated, fixed and stained with crystal violet. (B) Viability measurement (XTT assay) of a tumor cell line (NMP53^−/− cells) treated for 3 days with a series of concentrations of compound 3a according to this invention. […] (C) Determination of the percentage of cell death (by means of propidium iodide staining) of a tumor cell line (NMP53^−/− cells) treated with compound 3a for 5 days.
The cell viability assay (XTT-Assay) was used to determine cellular IC50 values. 1 000 cells were seeded per 96 well and treated with a 2-fold dilution series of the compounds on the next day. As a control, the cells were treated with DMSO according to the highest compound concentration (negative control) or 1.5 mM chloroquine (positive control). 3 days after treatment with the respective compound, or DMSO/chloroquine as a control, the XTT Assay was conducted according to the manufacturer's instructions (Invitrogen, X6493). The absorbance was measured with the Infinite M Plex plate reader (Tecan) at 450 nm. The IC50 was calculated by variable slope nonlinear regression utilizing GraphPad Prism 8.4.0 software (GraphPad Software, La Jolla, CA), with the DMSO treated cells resembling 100% cell viability and the chloroquine treated cells resembling o % cell viability.
Background: Formazan colour is commonly taken as a measure of viable cells.

Setting [6] is: lowest concentration of 2-fold dilution series that inhibited cell growth substantially.
Where [7] appears, read: colony formation assay, lowest concentration of 2-fold dilution series that inhibited cell growth substantially.

Where two headings read alike, the source gives them in different places.

T1 sequence (O14965 whole entry): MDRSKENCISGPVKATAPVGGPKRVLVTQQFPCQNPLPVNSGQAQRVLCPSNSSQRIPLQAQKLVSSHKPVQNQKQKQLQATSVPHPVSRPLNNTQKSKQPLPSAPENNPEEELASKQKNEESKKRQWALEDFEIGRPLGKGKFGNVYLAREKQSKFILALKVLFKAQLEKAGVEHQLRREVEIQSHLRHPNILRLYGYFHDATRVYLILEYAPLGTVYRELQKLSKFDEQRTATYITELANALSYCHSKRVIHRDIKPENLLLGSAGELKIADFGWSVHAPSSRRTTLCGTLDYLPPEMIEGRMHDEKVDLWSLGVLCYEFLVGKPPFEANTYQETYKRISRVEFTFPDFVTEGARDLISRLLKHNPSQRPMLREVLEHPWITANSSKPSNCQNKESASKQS
interaction of AURKA with TPX2, sequence (O14965 whole entry, looked up): as the sequence (O14965 whole entry) above
interaction of AURKA with TPX2, sequence (A2APB8 whole entry partner, looked up): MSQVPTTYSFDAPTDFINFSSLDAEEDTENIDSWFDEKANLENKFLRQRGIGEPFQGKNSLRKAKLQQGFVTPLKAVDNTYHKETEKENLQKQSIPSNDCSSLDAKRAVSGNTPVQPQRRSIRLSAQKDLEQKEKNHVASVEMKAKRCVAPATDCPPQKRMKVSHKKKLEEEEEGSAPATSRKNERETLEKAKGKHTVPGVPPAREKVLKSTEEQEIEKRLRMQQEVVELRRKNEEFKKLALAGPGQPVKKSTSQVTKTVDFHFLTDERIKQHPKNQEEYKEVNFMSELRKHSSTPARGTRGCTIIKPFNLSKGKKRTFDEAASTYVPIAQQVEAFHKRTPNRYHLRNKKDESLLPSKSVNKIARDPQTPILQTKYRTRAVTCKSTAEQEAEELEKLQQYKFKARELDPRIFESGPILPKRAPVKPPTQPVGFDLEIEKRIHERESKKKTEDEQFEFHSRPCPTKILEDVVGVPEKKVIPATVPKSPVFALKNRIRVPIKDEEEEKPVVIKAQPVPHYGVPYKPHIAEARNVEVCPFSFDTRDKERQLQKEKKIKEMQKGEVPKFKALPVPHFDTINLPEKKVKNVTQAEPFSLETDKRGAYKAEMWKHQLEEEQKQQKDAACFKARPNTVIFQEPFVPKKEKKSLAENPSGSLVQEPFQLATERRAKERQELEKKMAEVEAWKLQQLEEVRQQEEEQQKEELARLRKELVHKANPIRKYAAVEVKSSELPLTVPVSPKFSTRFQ

The term IC50 denotes the concentration that inhibits the measured activity by half. As to `O=C(CCc1ccco1)Nc1cc(NCc2ccc(-c3cn[nH]c3)cc2)ccc1F` [Compound 2c, N-(5-((4-(1H-pyrazole-4-yl)benzyl)amino)-2-fluorophenyl)-3-(furan-2-yl)propanamide], the IC50 was determined as 27.6 nM at AURKA [1] and 60 nM in the experiment on NMP53^−/− cells [5] (Mus musculus, 72 h). The minimal effective concentration was 1 µM with NMCdkn2a^ARF−/− cells (setting [6]), above 1 µM in the experiment with NMCdkn2a^ARF−/− cells, 0.125 µM in the experiment on NMP53^−/− cells [3] (setting [7]) and 0.125 µM in the experiment with NMP53^−/− cells [3] (colony formation assay). Further, the “binding to AURKA” value on AURKA [2] is given as “strong binding”. Further, in the experiment on NMP53^−/− cells [3] (EC on NMP53^−/− cells), the “higher cellular activity compared to the initial hit 1” value is reported as “up to 16 fold”. Further, the “increased efficacy compared to compound 2a” value in the experiment with NMP53^−/− cells [3] (EC on NMP53^−/− cells) was 4 fold. Besides, the “selectivity for NMP53^−/− cells” value in the experiment on NMP53^−/− cells [3] (NMP53^−/− versus NMCdkn2a^ARF−/− cells, colony formation assay) is on record as “up to 8 fold”. Also, the “off-targets in kinome screen” value with 320 wildtype kinases (100 nM) is “no off-targets”. This compound also displayed a selectivity score in the experiment on 320 wildtype kinases (500 nM) of 0.019. In addition, in experiment [4], the “interaction of AURKA with TPX2” value is given as “largely enhance”.

With `Cn1cc(-c2ccc(CNc3ccc(F)c(NC(=O)CCc4ccco4)c3)cc2)cn1` [Compound 3a, N-(2-fluoro-5-((4-(1-methyl-1H-pyrazole-4-yl)benzyl)amino)phenyl)-3-(furan-2-yl)propanamide], the IC50 on AURKA [1] was above 10000 nM; in the experiment on NMP53^−/− cells [5] it was 13 nM; with NMP53^−/− cells [5] (Mus musculus, 72 h) it was 14 nM. Further, the minimal effective concentration in the experiment with NMCdkn2a^ARF−/− cells (setting [6]) was 0.25 to 0.5 µM; in the experiment on NMCdkn2a^ARF−/− cells, 0.25 to 0.5 µM; with NMP53^−/− cells [3] (setting [7]), 0.031 µM; with NMP53^−/− cells [3] (colony formation assay), 0.031 µM. The “inhibition in kinome screen” value in the experiment on 320 wildtype kinases (320 wildtype kinases) was “overall no inhibition”. Further, in experiment [4], the “interaction of AURKA with TPX2” value is “largely enhance”.
